# From ChEMBL document CHEMBL2401633, “tert-Butyl 1,5-bis(4-(benzo[d]isothiazol-3-yl)piperazin-1-yl)-1,5-dioxopentan-2-ylcarbamate urea/thiourea derivatives as potent H+/K(+)-ATPase inhibitors” (Bioorg Med Chem Lett, 2013)
# pIC50: −log10 of the molar value.
# Species on record: Ovis aries
# Assay: Ratio of omeprazole IC50 to compound IC50 for sheep gastric H(+)/K(+) ATPase
# Assay type: tissue-based
# Conditions: Stomach; call rule not given here
row,SMILES,Ratio IC50
1,COc1ccc(NC(=S)NC(CCC(=O)N2CCN(c3nsc4ccccc34)CC2)C(=O)N2CCN(c3nsc4ccccc34)CC2)cc1 (configuration not stated),15

# Test system: not listed separately
# Assay: Inhibition of sheep gastric H(+)/K(+)-ATPase-mediated inorganic phosphate liberation after 15 mins by Fiske Subbarow method in presence of ATP
# Assay type: tissue-based, Ovis aries, Stomach
# Conditions: not given
row,SMILES,IC50
1,CC(C)(C)OC(=O)NC(CCC(=O)O)C(=O)N1CCN(c2nsc3ccccc23)CC1 (configuration not stated),Not Active
2,CC(C)(C)OC(=O)NC(CCC(=O)N1CCN(c2nsc3ccccc23)CC1)C(=O)N1CCN(c2nsc3ccccc23)CC1 (configuration not stated),Not Active
3,CC(C)(C)OC(=O)NC(CCC(=O)OCc1ccccc1)C(=O)N1CCN(c2nsc3ccccc23)CC1 (configuration not stated),Not Active
4,CC(C)(C)OC(=O)NC(CCC(=O)OCc1ccccc1)C(=O)O (configuration not stated),Not Active

# Same assay, conditions: read-out: IC50
row,SMILES,pIC50
1,O=C(CCC(NC(=S)Nc1ccc(Cl)cc1)C(=O)N1CCN(c2nsc3ccccc23)CC1)N1CCN(c2nsc3ccccc23)CC1 (configuration not stated),4.27
2,O=C(CCC(NC(=S)Nc1ccccc1F)C(=O)N1CCN(c2nsc3ccccc23)CC1)N1CCN(c2nsc3ccccc23)CC1 (configuration not stated),4.13
3,O=C(Nc1cccc(Cl)c1)NC(CCC(=O)N1CCN(c2nsc3ccccc23)CC1)C(=O)N1CCN(c2nsc3ccccc23)CC1 (configuration not stated),4.25
4,O=C(CCC(NC(=S)Nc1ccc(F)cc1)C(=O)N1CCN(c2nsc3ccccc23)CC1)N1CCN(c2nsc3ccccc23)CC1 (configuration not stated),4.15
5,O=C(Nc1ccccc1F)NC(CCC(=O)N1CCN(c2nsc3ccccc23)CC1)C(=O)N1CCN(c2nsc3ccccc23)CC1 (configuration not stated),4.10
6,COc1ccc(NC(=O)NC(CCC(=O)N2CCN(c3nsc4ccccc34)CC2)C(=O)N2CCN(c3nsc4ccccc34)CC2)cc1 (configuration not stated),5.21
7,O=C(CCC(NC(=S)Nc1cccc(Cl)c1)C(=O)N1CCN(c2nsc3ccccc23)CC1)N1CCN(c2nsc3ccccc23)CC1 (configuration not stated),4.22
8,COc1cccc(NC(=S)NC(CCC(=O)N2CCN(c3nsc4ccccc34)CC2)C(=O)N2CCN(c3nsc4ccccc34)CC2)c1 (configuration not stated),5.00
9,O=C(Nc1ccc(Br)cc1)NC(CCC(=O)N1CCN(c2nsc3ccccc23)CC1)C(=O)N1CCN(c2nsc3ccccc23)CC1 (configuration not stated),4.34
10,COc1cccc(NC(=O)NC(CCC(=O)N2CCN(c3nsc4ccccc34)CC2)C(=O)N2CCN(c3nsc4ccccc34)CC2)c1 (configuration not stated),4.96
11,COc1ccc2[nH]c([S+]([O-])Cc3ncc(C)c(OC)c3C)nc2c1 (configuration not stated) [OMEPRAZOLE],4.08
12,O=C(CCC(NC(=S)Nc1cccc(Br)c1)C(=O)N1CCN(c2nsc3ccccc23)CC1)N1CCN(c2nsc3ccccc23)CC1 (configuration not stated),4.32
13,O=C(Nc1ccccc1)NC(CCC(=O)N1CCN(c2nsc3ccccc23)CC1)C(=O)N1CCN(c2nsc3ccccc23)CC1 (configuration not stated),4.03
14,COc1ccccc1NC(=O)NC(CCC(=O)N1CCN(c2nsc3ccccc23)CC1)C(=O)N1CCN(c2nsc3ccccc23)CC1 (configuration not stated),4.72
15,O=C(Nc1cccc(F)c1)NC(CCC(=O)N1CCN(c2nsc3ccccc23)CC1)C(=O)N1CCN(c2nsc3ccccc23)CC1 (configuration not stated),4.11
16,COc1ccccc1NC(=S)NC(CCC(=O)N1CCN(c2nsc3ccccc23)CC1)C(=O)N1CCN(c2nsc3ccccc23)CC1 (configuration not stated),4.77
17,O=C(CCC(NC(=S)Nc1ccccc1)C(=O)N1CCN(c2nsc3ccccc23)CC1)N1CCN(c2nsc3ccccc23)CC1 (configuration not stated),4.05
18,O=C(Nc1cccc(Br)c1)NC(CCC(=O)N1CCN(c2nsc3ccccc23)CC1)C(=O)N1CCN(c2nsc3ccccc23)CC1 (configuration not stated),4.30
19,O=C(Nc1ccc(F)cc1)NC(CCC(=O)N1CCN(c2nsc3ccccc23)CC1)C(=O)N1CCN(c2nsc3ccccc23)CC1 (configuration not stated),4.14
20,O=C(CCC(NC(=S)Nc1ccccc1Br)C(=O)N1CCN(c2nsc3ccccc23)CC1)N1CCN(c2nsc3ccccc23)CC1 (configuration not stated),4.36
21,COc1ccc(NC(=S)NC(CCC(=O)N2CCN(c3nsc4ccccc34)CC2)C(=O)N2CCN(c3nsc4ccccc34)CC2)cc1 (configuration not stated),5.27
22,O=C(Nc1ccc(Cl)cc1)NC(CCC(=O)N1CCN(c2nsc3ccccc23)CC1)C(=O)N1CCN(c2nsc3ccccc23)CC1 (configuration not stated),4.28
